# Measured values from the supplement of paper PMC6045584.
# ± gives the standard deviation of the averaged measurements.
# How the values were obtained:
# Experiment in all cases: surviving fraction relative to DMSO-only wells; higher = less growth inhibition
# Conditions in all cases: exposure time: 5 days
# [1] = compound: CC(=O)NCC(=O)N1[C@@H]2CC[C@H]1c1ccc(Nc3ncc(C(F)(F)F)c(NC4CCC4)n3)cc12
# Summary of the method: (§1)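 Continuous five-day exposure to inhibitors at 0.5, 1, 5, 10, 50, 100, 500 and 1000 nM started 24 hours after log-phase tumour cell lines were seeded at 250–500 cells per well in 384-well plates. Luminescence was read after 10 minutes at room temperature. Viability is given as surviving fraction, meaning CellTiter-Glo luminescence normalised to the median of DMSO-only wells.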
# PACLITAXEL = compound: CC(=O)O[C@H]1C(=O)[C@@]2(C)[C@H]([C@H](OC(=O)c3ccccc3)[C@]3(O)C[C@H](OC(=O)[C@H](O)[C@@H](NC(=O)c4ccccc4)c4ccccc4)C(C)=C1C3(C)C)[C@]1(OC(C)=O)CO[C@@H]1C[C@@H]2O [PACLITAXEL]
# Summary of the method: as §1
# [2] = compound: CC(=O)c1c(C)c2cnc(Nc3ccc(N4CCNCC4)cn3)nc2n(C2CCCC2)c1=O
# Summary of the method: as §1
# CAMPTOTHECIN = compound: CC[C@@]1(O)C(=O)OCc2c1cc1n(c2=O)Cc2cc3ccccc3nc2-1 [CAMPTOTHECIN]
# Summary of the method: as §1
# YM155 = compound: COCC[n+]1c2c(n(Cc3cnccn3)c1C)C(=O)c1ccccc1C2=O [YM155]
# Summary of the method: as §1
test system,measurement,setting,value
HUO3N1 BONE,surviving fraction,[1]; 0.5 nM,1.01 ± 0.064
same,surviving fraction,[1]; 1 nM,0.997 ± 0.054
same,surviving fraction,[1]; 5 nM,1.01 ± 0.021
same,surviving fraction,[1]; 10 nM,1.02 ± 0.036
same,surviving fraction,[1]; 50 nM,1.03 ± 0.076
same,surviving fraction,[1]; 100 nM,0.972 ± 0.036
same,surviving fraction,[1]; 500 nM,0.737 ± 0.064
same,surviving fraction,[1]; 1000 nM,0.533 ± 0.037
same,surviving fraction,PACLITAXEL; 0.5 nM,0.808 ± 0.025
same,surviving fraction,PACLITAXEL; 1 nM,0.74 ± 0.019
same,surviving fraction,PACLITAXEL; 5 nM,0.334 ± 0.011
same,surviving fraction,PACLITAXEL; 10 nM,0.23 ± 0.0085
same,surviving fraction,PACLITAXEL; 50 nM,0.129 ± 0.0068
same,surviving fraction,PACLITAXEL; 100 nM,0.115 ± 0.0063
same,surviving fraction,PACLITAXEL; 500 nM,0.094 ± 0.006
same,surviving fraction,PACLITAXEL; 1000 nM,0.1 ± 0.018
same,surviving fraction,[2]; 0.5 nM,1.01 ± 0.041
same,surviving fraction,[2]; 1 nM,1.04 ± 0.032
same,surviving fraction,[2]; 5 nM,1.05 ± 0.035
same,surviving fraction,[2]; 10 nM,1.01 ± 0.066
same,surviving fraction,[2]; 50 nM,1.04 ± 0.024
same,surviving fraction,[2]; 100 nM,1.1 ± 0.016
same,surviving fraction,[2]; 500 nM,1.01 ± 0.05
same,surviving fraction,[2]; 1000 nM,1.03 ± 0.022
same,surviving fraction,CAMPTOTHECIN; 0.5 nM,0.761 ± 0.25
same,surviving fraction,CAMPTOTHECIN; 1 nM,0.955 ± 0.14
same,surviving fraction,CAMPTOTHECIN; 5 nM,0.639 ± 0.046
same,surviving fraction,CAMPTOTHECIN; 10 nM,0.373 ± 0.057
same,surviving fraction,CAMPTOTHECIN; 50 nM,0.228 ± 0.016
same,surviving fraction,CAMPTOTHECIN; 100 nM,0.203 ± 0.025
same,surviving fraction,CAMPTOTHECIN; 500 nM,0.1357 ± 0.0011
same,surviving fraction,CAMPTOTHECIN; 1000 nM,0.112 ± 0.0079
same,surviving fraction,YM155; 0.5 nM,0.984 ± 0.065
same,surviving fraction,YM155; 1 nM,1.06 ± 0.015
same,surviving fraction,YM155; 5 nM,1.01 ± 0.036
same,surviving fraction,YM155; 10 nM,1.06 ± 0.04
same,surviving fraction,YM155; 50 nM,0.529 ± 0.14
same,surviving fraction,YM155; 100 nM,0.477 ± 0.046
same,surviving fraction,YM155; 500 nM,0.137 ± 0.0093
same,surviving fraction,YM155; 1000 nM,0.0927 ± 0.0065
